In PubChem BioAssay (NCI):
“And” between values parts separate entries of the source, which are not always exact repeats. Equal values may be shown once.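 96-well plates; 48 h exposure; 5 concentrations. Endpoints by linear interpolation between flanking doses. Not reached: highest tested concentration assigned. GI50 is the concentration that inhibits growth by half. TGI denotes the concentration required for complete inhibition of growth.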

Tests used:
Experiment in all cases: DTP human tumour cell line panel, 48 h
ACHN renal = test system: ACHN renal
HCT-15 colon = test system: HCT-15 colon
HOP-62 NSCLC = test system: HOP-62 NSCLC
HCC-2998 colon = test system: HCC-2998 colon
NCI-H522 lung = test system: NCI-H522 lung
HOP-92 NSCLC = test system: HOP-92 NSCLC
SR leukemia = test system: SR leukemia
SF-539 CNS = test system: SF-539 CNS
SNB-19 CNS = test system: SNB-19 CNS
HCT-116 colon = test system: HCT-116 colon

Row | SMILES | TGI (ACHN renal) | TGI (HCT-15 colon) | TGI (HOP-62 NSCLC) | TGI (HCC-2998 colon) | TGI (NCI-H522 lung) | TGI (HOP-92 NSCLC) | TGI (SR leukemia) | TGI (SF-539 CNS) | TGI (SNB-19 CNS) | TGI (HCT-116 colon) | GI50 (ACHN renal) | GI50 (HCT-15 colon) | GI50 (HOP-62 NSCLC) | GI50 (HCC-2998 colon) | GI50 (NCI-H522 lung) | GI50 (HOP-92 NSCLC) | GI50 (SR leukemia) | GI50 (SF-539 CNS) | GI50 (SNB-19 CNS) | GI50 (HCT-116 colon)
1 | COc1ccc(C(O)C(c2ccc(OCc3ccccc3)cc2)c2ccc(OCc3ccccc3)cc2)cc1 (stereo not given) | > 100 µM | > 100 µM | > 100 µM | > 100 µM | > 100 µM | > 100 µM | > 100 µM | > 100 µM | > 100 µM | > 100 µM | – | – | – | – | – | – | – | – | – | –
2 | CC(NC(=O)c1ccc(Cl)c(Cl)c1)c1ccc(-c2ccccc2)cc1 (stereo not given) | > 100 µM | > 100 µM | 54.5 µM | > 100 µM | > 100 µM | > 100 µM | 40.3 µM | 42.9 µM | 46.7 µM | > 100 µM | – | – | – | – | – | – | – | – | – | –
3 | COc1ccc(-c2nn3ncccc3c2-c2ccnc(Nc3ccc(F)c(F)c3)n2)cc1 | > 25 µM | > 25 µM | > 25 µM | > 25 µM | > 23.6 µM | > 25 µM | > 25 µM | > 25 µM | > 25 µM | > 25 µM | 10.4 µM | 8.77 µM | 14.1 µM | 6.72 µM | 8.18 µM | 3.99 µM | 18.7 µM | > 19.2 µM | 14.3 µM | 7.15 µM
4 | CCOc1ccc2nc3cc(N)ccc3c(N)c2c1 | 48.3 µM and 16.6 µM | > 100 µM and 33.7 µM | 6.84 µM and 6.49 µM | 13.9 µM and 4.72 µM | 4.54 µM and 5.1 µM | 16.4 µM and 11.3 µM | 8.36 µM and 8.48 µM | 13.6 µM and 6.38 µM | 2.04 µM and 5 µM | 15.4 µM and 14.2 µM | 7.01 µM and 3.93 µM | 23.2 µM and 12.1 µM | 1.49 µM and 1.58 µM | 3.24 µM and 1.43 µM | 1.8 µM and 1.69 µM | 3.4 µM and 2.96 µM | 2.61 µM and 2.8 µM | 2.66 µM and 1.79 µM | 0.339 µM and 0.574 µM | 3.62 µM and 3.63 µM
5 | COc1cc(-c2csc(NC(=O)Nc3ccc(Cl)cc3)n2)cc(OC)c1OC | 7.35 µM | > 40.9 µM | 7.76 µM | 18.8 µM | 6.95 µM | 6.85 µM | > 100 µM | 13.7 µM | 30.2 µM | 8.12 µM | 2.53 µM | 2.9 µM | 2.65 µM | 3.9 µM | 2.34 µM | 2.12 µM | 4.36 µM | 2.98 µM | 3.78 µM | 2.83 µM
6 | CCCCCOC(=O)c1c(C)[nH]c(/C=C2\N=C(c3ccc[nH]3)C=C2OC)c1C | 1.21 µM | 1.4 µM | 0.937 µM | 1.39 µM | 1.27 µM | 0.116 µM | 0.0403 µM | 0.725 µM | 8.4 µM | 0.349 µM | 0.0396 µM | 0.0264 µM | 0.0436 µM | 0.0285 µM | 0.0392 µM | 0.0214 µM | < 0.0107 µM | 0.0306 µM | 0.317 µM | 0.0193 µM
7 | COc1cc2c(cc1OCCCCCOc1ccc(-c3nc4ccccc4s3)cc1)N=C[C@@H]1CCCN1C2=O | 27.6 µM | 22.2 µM | 7.59 µM | 9.06 µM | 13.7 µM | 3.62 µM | 1.43 µM | 6.09 µM | 20.8 µM | 12.4 µM | 2.73 µM | 2.46 µM | 1.62 µM | 3.02 µM | 1.72 µM | 0.886 µM | 0.222 µM | 1.58 µM | 5.08 µM | 1.23 µM
8 | O=C(O)C1CCCN1 (stereo not given) | > 100 µM | > 100 µM | > 100 µM | > 100 µM | > 100 µM | > 100 µM | > 100 µM | > 100 µM | > 100 µM | > 100 µM | – | – | – | – | – | – | – | – | – | –
9 | COc1ccc2c(c1[N+](=O)[O-])CC[C@@H]1[C@@H]2CC[C@]2(C)C(=O)CC[C@@H]12 | > 1000 µM | > 1000 µM | > 6.71 µM and 639 µM | > 1000 µM | > 957 µM | – | > 1000 µM | > 890 µM | – | – | 424 µM | > 1000 µM | 322 µM | > 25 µM | 590 µM | 289 µM | > 25 µM | 300 µM | 457 µM | > 1000 µM
10 | O=C(Nc1ccccc1/C=C/c1n[nH]c2ccccc12)c1ccccc1 | 20.1 µM | 8.53 µM | 6.13 µM | 4.23 µM | 24 µM | 5.25 µM | 13.7 µM | 14.1 µM | 22.5 µM | 10.5 µM | 7.71 µM | 2.37 µM | 2.15 µM | 1.62 µM | 9.28 µM | 0.218 µM | 2.87 µM | 4.26 µM | 5.93 µM | 2.28 µM
11 | Clc1ccc2c(NCCCCNc3nc(N4CCOCC4)nc4ccccc34)ccnc2c1 | 3.6 µM | 11.4 µM | 5.67 µM | 14 µM | 5.6 µM | 4.29 µM | 0.853 µM | 3.39 µM | 12.6 µM | 4.63 µM | 1.9 µM | 2.75 µM | 2.17 µM | 3.81 µM | 2.34 µM | 1.88 µM | 0.295 µM | 1.8 µM | 3.37 µM | 2.13 µM
12 | O=c1oc2ccccc2cc1P(=O)(O)O | > 100 µM | > 100 µM | > 100 µM | > 100 µM | > 100 µM | > 100 µM | > 100 µM | > 100 µM | > 100 µM | > 100 µM | – | – | – | – | – | – | – | – | – | –
13 | Clc1ccc(NCNC2Nc3ccccc3N2)cc1Cl | > 100 µM | > 100 µM | > 100 µM | > 100 µM | 56.2 µM | > 100 µM | > 100 µM | > 100 µM | > 100 µM | > 100 µM | – | – | – | – | – | – | – | – | – | –
14 | CCCCCCCCCCCC1=NC(C)(C)CN1C(C)C | 15.7 µM | 8.76 µM | 16.2 µM | 3.27 µM | 10.8 µM | 5.17 µM | 4.32 µM | 4.41 µM | 23.4 µM | 10.4 µM | 4.15 µM | 2.63 µM | 4.35 µM | 1.71 µM | 2.65 µM | 1.19 µM | 1.71 µM | 2.14 µM | 11.3 µM | 2.83 µM
15 | CCN(CC)CCN1C(=O)C2C3C(C)=CC(OC(C)=O)(CC3C)C2C1=O (stereo not given) | > 100 µM | > 100 µM | > 100 µM | > 100 µM | > 100 µM | > 100 µM | > 100 µM | > 100 µM | > 100 µM | > 100 µM | > 100 µM | > 100 µM | > 100 µM | > 100 µM | > 100 µM | > 100 µM | > 100 µM | > 100 µM | > 100 µM | > 100 µM
16 | CN(C)CCN1C(=O)c2cccc3cc(N)cc(c23)C1=O | 4.47 µM and 3.63 µM | > 50 µM and 16 µM | 18.8 µM and 11.4 µM | 22.1 µM and 12 µM | 11.6 µM and 10.3 µM | 15.4 µM and 13.1 µM | > 40.8 µM and 11 µM | 18.2 µM and 14.7 µM | > 88.9 µM and 18.8 µM | > 60.2 µM and 9.87 µM | 1.33 µM | – | 3.08 µM | 4.69 µM | 3.21 µM | 2.28 µM | 3.38 µM and 0.824 µM | – | 4.7 µM | 3.21 µM
17 | CN(N=O)C(=O)NC(CCCCNC(=O)OCc1ccccc1)C(=O)OCc1ccccc1 (stereo not given) | 32.3 µM | > 100 µM | 79.6 µM | > 100 µM | 29.1 µM | 54.2 µM | 58.4 µM | 32.7 µM | > 100 µM | > 100 µM | – | – | – | – | – | – | – | – | – | –
18 | Cc1ccc(NC(=O)c2ccoc2)cc1-c1ccc(C(=O)NCC2CC2)cc1 | > 25 µM | > 25 µM | > 25 µM | > 25 µM | > 25 µM | > 25 µM | > 25 µM | > 25 µM | > 25 µM | > 25 µM | > 25 µM | > 20.5 µM | > 25 µM | > 25 µM | > 15.9 µM | 8.76 µM | > 25 µM | > 25 µM | > 25 µM | > 25 µM
19 | CC(C)(C)CNCCO | > 100 µM | > 100 µM | > 100 µM | > 100 µM | > 100 µM | > 100 µM | > 100 µM | > 100 µM | > 100 µM | > 100 µM | – | – | – | – | – | – | – | – | – | –
